Measured values: ChEMBL document CHEMBL5729054, “Five membered-aminoheterocycle and 5,6-or 6,6-membered bicyclic aminoheterocyclic inhibitors of rock for the treatment of heart failure” (2022)

Target: Rho-associated protein kinase 2 (Homo sapiens, UniProt O75116)
Test: In Vitro Assay: The effectiveness of compounds of the present invention as ROCK inhibitors can be determined in a 30 μL assay containing 20 mM HEPES, pH 7.5, 20 mM MgCl2, 0.015% Brij-35, 4 mM DTT, 5 μM ATP and 1.5 μM peptide substrate (FITC-AHA-AKRRRLSSLRA-OH) (SEQ ID No. 1). Compounds were dissolved in DMSO so that the final concentration of DMSO was <2%, and the reaction was initiated with Rho kinase variants. After incubation, the reaction was terminated by the addition of EDTA and the phosphorylated and non-phosphorylated peptides separated using a LABCHIP® 3000 Reader (Caliper Life Sciences). […] Compounds were tested in dose-response format, and the inhibition of kinase activity was calculated at each concentration of compound. The inhibition data were fit using a curve-fitting program to determine the IC50; i.e., the concentration of compound required to inhibit 50% of kinase activity.

Rho-associated protein kinase 2, sequence (O75116 whole entry, looked up, change not shown): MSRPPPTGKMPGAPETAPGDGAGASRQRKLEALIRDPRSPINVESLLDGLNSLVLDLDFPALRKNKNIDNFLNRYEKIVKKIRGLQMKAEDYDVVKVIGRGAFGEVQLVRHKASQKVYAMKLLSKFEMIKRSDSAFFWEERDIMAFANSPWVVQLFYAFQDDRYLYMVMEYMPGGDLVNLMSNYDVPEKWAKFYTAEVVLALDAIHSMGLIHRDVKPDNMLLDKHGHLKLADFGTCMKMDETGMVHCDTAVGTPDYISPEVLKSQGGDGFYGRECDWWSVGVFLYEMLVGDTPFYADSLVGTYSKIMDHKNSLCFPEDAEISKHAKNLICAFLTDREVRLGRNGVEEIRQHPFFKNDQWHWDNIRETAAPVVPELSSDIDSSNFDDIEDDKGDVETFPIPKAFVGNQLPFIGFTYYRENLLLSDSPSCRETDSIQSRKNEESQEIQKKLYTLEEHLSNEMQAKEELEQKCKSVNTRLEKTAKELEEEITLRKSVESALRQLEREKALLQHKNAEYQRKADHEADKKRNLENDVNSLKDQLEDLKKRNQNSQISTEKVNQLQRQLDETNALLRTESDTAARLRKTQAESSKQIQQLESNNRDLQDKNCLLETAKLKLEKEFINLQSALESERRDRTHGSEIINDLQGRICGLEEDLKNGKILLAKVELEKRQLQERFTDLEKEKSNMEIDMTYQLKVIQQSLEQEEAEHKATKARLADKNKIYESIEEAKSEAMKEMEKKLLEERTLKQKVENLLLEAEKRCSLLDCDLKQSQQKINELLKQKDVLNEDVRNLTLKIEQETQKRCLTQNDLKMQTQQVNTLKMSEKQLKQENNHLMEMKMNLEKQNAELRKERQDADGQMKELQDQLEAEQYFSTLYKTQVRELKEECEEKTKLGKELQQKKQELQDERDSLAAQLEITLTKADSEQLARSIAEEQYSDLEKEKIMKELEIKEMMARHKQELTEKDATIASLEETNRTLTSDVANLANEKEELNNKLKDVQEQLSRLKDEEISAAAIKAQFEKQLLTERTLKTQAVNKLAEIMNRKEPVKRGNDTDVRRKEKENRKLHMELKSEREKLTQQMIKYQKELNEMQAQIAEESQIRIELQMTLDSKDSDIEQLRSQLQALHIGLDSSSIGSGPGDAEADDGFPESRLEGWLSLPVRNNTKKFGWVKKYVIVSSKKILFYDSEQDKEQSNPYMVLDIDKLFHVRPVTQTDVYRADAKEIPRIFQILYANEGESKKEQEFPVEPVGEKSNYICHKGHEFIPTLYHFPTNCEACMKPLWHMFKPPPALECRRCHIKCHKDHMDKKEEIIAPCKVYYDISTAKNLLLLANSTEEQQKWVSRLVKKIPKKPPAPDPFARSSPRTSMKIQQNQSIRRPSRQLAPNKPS

IC50: 1510 nM
SMILES: N#Cc1cnc(NC2CC3(C2)CC(Oc2ncccc2C(N)=O)C3)nc1 (stereo unspecified)
